From patent US5874432A, “Saccharin derivatives useful as proteolytic enzyme inhibitors and compositions and method of use thereof” (priority 1997, dated 1999)
Where two headings read alike, the source gives them in different places.

Tests used:
human leukocyte elastase = molecular target: T1, human leukocyte elastase (Homo sapiens, UniProt P08246); test: elastase inhibition using human leukocyte elastase (kon and Ki*); assay type: biochemical; details: for Ki: Ki* = koff/kon, read-out: Elastase Ki *; for kon: rate of inactivation of enzyme, value is 10^-3 × kon, read-out: Elastase 10^-3 × kon
T1 sequence (P08246 30-267): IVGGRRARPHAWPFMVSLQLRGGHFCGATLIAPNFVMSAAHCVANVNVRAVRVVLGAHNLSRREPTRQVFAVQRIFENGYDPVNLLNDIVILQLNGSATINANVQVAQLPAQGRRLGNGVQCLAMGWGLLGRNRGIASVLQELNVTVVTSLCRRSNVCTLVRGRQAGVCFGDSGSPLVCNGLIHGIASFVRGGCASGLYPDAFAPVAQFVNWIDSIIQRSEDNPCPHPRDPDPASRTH

α-Chymotrypsin = α-Chymotrypsin (Bos taurus, UniProt P00766); test: α-chymotrypsin inhibition (kon and Ki*); assay type: biochemical; details: for Ki: Ki* = koff/kon
Experimental: Measurement of the inhibition constant, Ki, of a HLE-inhibitor complex has been described for "truly reversible inhibition constants" usually concerning competitive inhibitors. [Cha, Biochem. Pharmacol., 24, 2177-2185 (1975)]. […] Thus, instead of measuring a Ki, a Ki * is calculated which is defined as the ratio of the koff /kon, the rate of reactivation of the enzyme to the rate of inactivation of the enzyme. The values of koff and kon are measured and Ki * is then calculated. The rate of inactivation, kon, of enzymatic activity was determined for the compounds tested by measuring the enzyme activity of an aliquot of the respective enzyme as a function of time after addition of the test compound. […] The rate of inactivation is then equal to [formula] where [I] is the concentration of the inhibiting compound. The reactivation constant, koff, is similarly determined and the inhibition constant, Ki *, is then calculated as Ki *=koff /kon The values obtained for kon and Ki * for specific substituted saccharin derivatives are shown in TABLE F, the compounds being identified by the Example numbers above where their preparations are described.

[1] = read-out: α-Chymotrypsin 10^-3 × kon

SMILES	Ki (human leukocyte elastase) [µM]	kon (human leukocyte elastase) [M⁻¹ s⁻¹]	Ki (α-Chymotrypsin) [µM]	kon (α-Chymotrypsin; [1]) [M⁻¹ s⁻¹]	kon (α-Chymotrypsin; rate of inactivation of enzyme, value is 10^-3 × kon) [M⁻¹ s⁻¹]
O=C1c2c(Cl)cccc2S(=O)(=O)N1Cn1nnn(-c2ccccc2)c1=S [Example 5, 4-chloro-2-(4-phenyl-5-thioxotetrazolin-1-ylmethyl)saccharin]	0.006	44000	0.025	6000	
CC(=O)Nc1cccc(-n2nnnc2SCN2C(=O)c3ccccc3S2(=O)=O)c1 [Example 6, 2-[1-(3-acetamidophenyl)-1H-tetrazol-5-ylthiomethyl]saccharin]	0.015	5500	0.3	3700	
CC(=O)OCN1C(=O)c2c(C)cccc2S1(=O)=O [Example 1, 2-acetoxymethyl-4-methylsaccharin]	0.102	630	0.917	1200	
O=C1c2c(Cl)cccc2S(=O)(=O)N1CCl [Example 3, 2-chloromethyl-4-chlorosaccharin]	0.0005	450000	0.026	5800	
O=C1c2ccccc2S(=O)(=O)N1C[S+]([O-])c1nnnn1-c1ccccc1 (stereo not drawn) [Example 10, 2-(1-phenyl-1H-tetrazol-5-ylsulfinylmethyl)saccharin]	0.011	7000	0.157	7000	
O=C1c2c(-c3ccccc3)cccc2S(=O)(=O)N1CCl [Example 18, 2-chloromethyl-4-phenylsaccharin]	0.1	1000	0.62	210	
O=C1c2ccccc2S(=O)(=O)N1CS(=O)(=O)c1ccccc1 [Example 12, 2-(phenylsulfonylmethyl)saccharin]	0.082	970	1	1100	
Cn1nnnc1SCN1C(=O)c2ccccc2S1(=O)=O [Example 8, 2-(1-methyl-1H-tetrazol-5-ylthiomethyl)saccharin]		1000	0.523		2100
O=C1c2ccccc2S(=O)(=O)N1CS(=O)(=O)c1ncccn1 [Example 14, 2-(2-pyrimidylsulfonylmethyl)saccharin]	0.138	600	0.392	2800	
O=C1c2ccccc2S(=O)(=O)N1C[S+]([O-])c1ncccn1 (stereo not drawn) [Example 13, 2-(2-pyrimidylsulfinylmethyl)saccharin]	0.285	300	0.423	2600	
CN(C)C(=O)Cn1nnnc1SCN1C(=O)c2ccccc2S1(=O)=O [Example 30AS]	0.04	1700			
O=C1c2ccccc2S(=O)(=O)N1CSc1nncn1-c1ccccc1 [Example 30I]	0.65	450			
O=C(CC(c1ccccc1)c1ccccc1)Nc1ccc2c(c1)C(=O)N(CSc1nnnn1-c1ccccc1)S2(=O)=O [Example 16, 5-(3,3-diphenylpropionamido)-2-(1-phenyl-1H-tetrazol-5-ylthiomethyl)saccharin]	2.6				
O=C1c2ccccc2S(=O)(=O)N1CSc1nnc2ccccn12 [Example 30N]	0.22	250			
CC(=O)OCN1C(=O)c2c(Cl)cccc2S1(=O)=O [Example 2, 2-acetoxymethyl-4-chlorosaccharin]	0.045	4900	0.051	2900	
O=C1c2ccccc2S(=O)(=O)N1CSc1nc2ccc([N+](=O)[O-])cc2o1 [Example 30BE]	0.25	7400			
Cc1nnc(SCN2C(=O)c3ccccc3S2(=O)=O)s1 [Example 30AB]	0.023	2800			
